Laboratory results: patent publication US6962931B2, “Self-emulsifying formulations of cholesteryl ester transfer protein inhibitors” (Pfizer Inc., priority 2001, dated 2005)

Test: Emulsion from oil solution plus equal volume of water: particle size and stability
Format: physicochemical
Procedure: An emulsion was prepared by combining 1 volume of oil solution with an equal volume of de-ionized water. […] The emulsion is then stirred continuously to maintain homogeneity.
An emulsion was prepared by combining 1 volume of oil solution with an equal volume of de-ionized water. This mixture was stirred for 10 minutes and then vortex mixed for 2 minutes. […] It was stirred continuously to maintain homogeneity.
An emulsion was prepared by combining combining 1 volume of oil solution with an equal volume of de-ionized water. This mixture was stirred for 10 minutes and then vortex mixed for 2 minutes. […] It was stirred continuously to maintain homogeneity.

CCOC(=O)N1c2ccc(C(F)(F)F)cc2[C@@H](N(Cc2cc(C(F)(F)F)cc(C(F)(F)F)c2)C(=O)OC)C[C@H]1CC [Compound A, [2R,4S] 4-[(3,5-bis-trifluoromethyl-benzyl)-methoxycarbonyl-amino]-2-ethyl-6-trifluoromethyl-3,4-dihydro-2H-quinoline-1-carboxylic acid ethyl ester]
chemical degradation or crystallization (Example 17 oil after storage for 8 days or emulsion after 24 hr): No chemical degradation based on HPLC analysis or crystallization based on microscopic examination was detected | average particle size of emulsion (Example 17 oil solution (Miglyol 812/propylene carbonate/Cremophor EL, 115 mg/g) plus equal volume water): less than 10 microns | chemical degradation or crystallization (Example 18 oil after storage for 8 days or emulsion after 24 hr): No chemical degradation based on HPLC analysis or crystallization based on microscopic examination was detected | average particle size of emulsion (Example 18 oil solution (olive oil/Cremophor EL, 13 mg/g) plus equal volume water): less than 10 microns
